# In ChEMBL document CHEMBL1144063, “ent-kaurane diterpenoids from Isodon lungshengensis” (J Nat Prod, 1999):
# Test system: K562
# Assay: Cytotoxicity against human K-562 cells by MTT assay
# Assay type: functional, cell-based
row,SMILES,IC50
1,C=C1C(=O)[C@]23C[C@H]1C[C@H](O)[C@H]2[C@@]1(C)[C@H]([C@@H](O)C3)C(C)(C)[C@@H](OC(C)=O)[C@@H](OC(C)=O)[C@@H]1O [LUNGSHENGENIN A],11.7 µg/mL
2,C=C1C(=O)[C@@]23CC(=O)[C@@H]4C(C)(C)[C@@H](OC(C)=O)[C@@H](OC(C)=O)[C@H](O)[C@@]4(C)[C@@H]2[C@@H](O)C[C@@H]1C3 [LUNGSHENGENIN G],3.29 µg/mL
3,C=C1C(=O)[C@]23C[C@H]1C[C@H](O)[C@H]2[C@]1(C)C[C@H](OC(C)=O)[C@H](OC(C)=O)C(C)(C)[C@H]1[C@@H](OC(C)=O)C3 [LUNGSHENGENIN C],1.14 µg/mL
